Experiments:
[1] = test system: Streptococcus pneumoniae ATCC 49619; assay: MIC, microdilution broth method (NCCLS); type: cell-based; details: ATCC49619; organism E: Streptococcus pneumoniae ATCC 49619; 35° C., 16–20 hours
Protocol: (§1) Minimal inhibitory concentration (MIC) has been an indicator of in vitro antibacterial activity widely used in the art. The in vitro antimicrobial activity of the compounds was determined by the microdilution broth method following the test method from the National Committee for Clinical Laboratory Standards (NCCLS). This method is described in the NCCLS Document M7-A4, Vol.17, No.2, “Methods for Dilution Antimicrobial Susceptibility Test for Bacteria that Grow Aerobically—Fourth Edition”, which is incorporated herein by reference.
(§2) In this method two-fold serial dilutions of drug in cation adjusted Mueller-Hinton broth are added to wells in microdilution trays. The test organisms are prepared by adjusting the turbidity of actively growing broth cultures so that the final concentration of test organism after it is added to the wells is approximately 5×10^4 CFU/well.
(§3) Following inoculation of the microdilution trays, the trays are incubated at 35° C. for 16–20 hours and then read. […] The amount of growth in the wells containing the test compound is compared with the amount of growth in the growth-control wells (no test compound) used in each tray. As set forth in Table 5, compounds of the present invention were tested against a variety of pathogenic bacteria resulting in a range of activities depending on the organism tested.

[2] = test system: Staphylococcus aureus OC4172; assay: MIC, microdilution broth method (NCCLS); type: cell-based; details: organism A: Staphylococcus aureus OC4172; 35° C., 16–20 hours
Protocol: as §1, §2, §3

Structure (SMILES)	MIC [1]	MIC [2]
NCC(F)=C1CCN(c2cc3c(cc2F)c(=O)c(C(=O)O)cn3C2CC2)CC1.O=C(O)C(F)(F)F [Compound 5, 7-[4-(2-Amino-1-fluoro-ethylidene)piperidin-1-yl]-1-cyclopropyl-6-fluoro-4-oxo-1,4-dihydroquinoline-3-carboxylic acid trifluoroacetic acid salt]	0.06 µg/mL	
CNCC=C1CCN(c2c(F)cc3c(=O)c(C(=O)O)cn(C4CC4)c3c2OC)CC1.O=C(O)C(F)(F)F [Compound 221, 1-Cyclopropyl-6-fluoro-8-methoxy-7-[4-(2-methylaminoethylidene)piperidin-1-yl]-4-oxo-1,4-dihydroquinoline-3-carboxylic acid trifluoroacetic acid salt]	0.5 µg/mL	0.12 µg/mL

Source: patent publication US7179805B2, “7-amino alkylidenyl-heterocyclic quinolones and naphthyridones” (Janssen Pharmaceutica N.V., priority 2003, dated 2007)
